Experimental data as given in US11141406B2, “Pharmaceutical compounds” (REVIRAL LIMITED, priority 2017, dated 2021).
pIC50: −log10 of the molar value.

Columns and labels:
Assay type in all cases: cell-based
RSV A2 VR-1540 = assay: RSV plaque reduction assay, typical conditions (HEp-2 cells); settings: human respiratory syncytial virus
Method: The plaque reduction assay was typically performed as follows. HEp-2 cells (ATCC, CCL23) were passaged in flasks and seeded in 96-well plates in DMEM containing antibiotics and supplemented with 10% FBS. During inoculation and subsequent incubation, cells were cultured in DMEM containing 3% FBS. 100 plaque forming unit (PFU)/well of RSV (RSV A2 VR-1540) was mixed with ten serial dilutions of compound. Subsequently, 100 μL of the virus/compound mixtures was added to confluent HEp-2 cell monolayers. The cells and virus/compound mixtures were incubated at 35° C. in a humidified 5% CO2 incubator for 1 day.
Cells were washed twice with PBS before adding 50% v % v EtOH/MeOH, and then stored at −20° C. On the day of the staining, fixative was first removed from the plates. Plates were washed 3× with PBS. A pre-titrated amount of the primary antibody was added in 60 μL PBS/2% milk powder, and plates incubated for 1 h at rt. The plates were washed 3× with PBS/0.05% Tween20 before addition of goat anti-mouse horse radish peroxidase in 60 μL PBS/2% milk powder, and incubated for 1 h at rt. Following three wash steps with PBS/0.05% Tween20, 60 μL ready-to-use TrueBlue was added and plates were incubated at it for 10-15 min before adding MilliQ water. Plates were washed once with water, incubated for 30-60 min and after removal of water, air-dried in the dark.
(§1) Plates were scanned and analyzed using the Immunospot S6 UV analyzer, which is equipped with BioSpot analysis software for counting immunostained plaques (virospots). Plaque counts were used to calculate % infection relative to the mean of the spot count (SC) in the virus control wells for RSV. IC50/IC90 values were calculated as 50% or 90% reduction in signal, respectively, by interpolation of inhibition curves fitted with a 4-parameter nonlinear regression with a variable slope in GraphPad 5.0 (Prism). Alternatively, where noted the plaque reduction assay was performed as follows. Hep G2 cells (ECACC, 85011430) were passaged in flasks and seeded in 12-well plates in DMEM containing antibiotics and supplemented with 10% FBS, 24 h prior to inoculation. During inoculation and subsequent incubation, cells were cultured in DMEM containing 2% FBS. 75 plaque forming unit (PFU)/well of RSV (RSV A2, 0709161v) was mixed with 8 serial dilutions of compound. Subsequently, 200 μL of the virus/compound mixtures was added to confluent Hep G2 cell monolayers, for a 2 h infection, with manual shaking every 15 min. Infectious supernatant was then removed and replaced with 2 mL of overlay, comprising 4 parts of DMEM+2% FBS and 1 part 4% CMC, with 0.25% DMSO. The cells were incubated at 37° C. in a humidified 5% CO2 incubator for 5 days.

[1] = tested on: RSV fusion (HEK293T cells transfected with pCDNA3.1_A2_F); assay: RSV fusion assay; settings: human respiratory syncytial virus, HEK-293T, read-out: RSV Fusion Assay (n ≥ 2) IC50
Method: HEK293T ((ECACC 12022001) cells were cultured in T75 culture flasks in Dulbecco's medium (DMEM) containing 10% Foetal Bovine serum (FBS), 50 units per mL Penicillin and 50 μg/mL Streptomycin and warmed to 37° C. prior to use. The cells were passaged by first washing briefly with 5 mL Phosphate buffered saline (PBS), followed by addition of 2 mL of Trypsin Ethylenediaminetetraacetic acid (EDTA) to detach the cells. Once cells had detached from the flask, 8 mL media was then added to and the cells dispersed via pipetting against the bottom of the flask.
The cells were counted and diluted to 3×10^5 cells/mL in fresh media. Two T75 flasks were each seeded with 15.6 mL diluted cells, cells were also subcultured at a ratio of between 1:2 and 1:10, to continue the stock. The flasks were then incubated for 24 h at 37° C. and 5% CO2.
The plasmid DNA (for pFR-Luc and pcDNA3.1_Gal4/NFKB) to be transfected into the HEK 293T cells was first prepared in serum free media (Opti-MEM, Invitrogen), containing the transfection reagent FuGENE® 6 (Promega). Serum free media was placed in a 1.5 mL eppendorf tube then the FuGENE 6 was added into the media. The tube was vortexed for 1 s before being incubated at RT for 5 min. 7.79 ng of both pFR_luc and pCDNA3.1_A2_F plasmid DNA were added to tube 1 and 7.79 ng of pCDNA3.1_GAL4-NF-κB plasmid to tube 2. The tubes were vortexed for 1 second and then incubated at room temperature for 15 min. Each transfection mixture was then added into the media of one of the T75 flasks of 293T cells. Cells were cultured for 24 h at 37° C., 5% CO2 in a humidified incubator.
Compounds were diluted (in a polypropylene round-bottomed 96 well plate) 1:3 in a twelve point dilution curve to give top [final] of either 25 μM, 3 μM, 1 μM or 500 nM. A control compound was included in every assay at a top concentration of 3 μM. Transfected cells were counted and diluted to 4×10^5 cells/mL in fresh media. 50 μL of transfection population 1 were added to all wells of the 96 well flat bottom white opaque assay plates. 100 μL diluted compound (2 rows per compound), control compound (one row) and controls (DMSO (0% inhibition, four wells), 3 μM positive control (100% inhibition, four wells) and media (transfection population 1 only, four wells) were added to the appropriate wells. 50 μL of the diluted (4×10^5 cells/mL) population 2 cells when then added to all wells, except the four wells of transfection population 1 only where an extra 50 μL of this cells population was added.
The plates were then incubated for 24 h at 37° C. and 5% CO2. After this time, 100 μL was removed from all wells and 60 μL of ONE-Glo™ (Promega) reagent, pre-equilibrated to room temperature, was added. Plates were then incubated for 3 min at room temperature before luminescence was read, using the ONE-Glo protocol, on the GloMax Explorer System (Promega) multimode reader. Analysis was carried out in Dotmatics software. All raw data were background subtracted (subtraction of mean 3 μM positive control value), before IC50 calculation.

RSV A2, 0709161v = assay: RSV plaque reduction assay, alternative conditions (Hep G2 cells); settings: human respiratory syncytial virus, HepG2, mean of at least 2 independent experiments, read-out: RSV Plaque Reduction Assay Strain A2 IC50
Method: as §1
Overlay was removed, and cells were washed with PBS before fixing with a mixture of 75% acetone 25% methanol for 3 minutes and replacing with fresh PBS. […] Staining was carried out whilst shaking at 37° C. First the plates were blocked with 500 uL PBS-T/2% milk powder per well, for 1 hr. This was then replaced with 250 uL PBS-T/2% milk powder containing a pre-titrated amount of the primary antibody (ab1128), for 90 min. The plates were washed 3×5 min with PBS-T, before addition of rabbit anti-goat horse radish peroxidase (AP106P) in 250 μL PBS-T/2% milk powder, and incubated for 1 hr. […]
Plates were scanned and analysed using the Immunospot S6 Macro analyzer, which is equipped with BioSpot analysis software for counting immunostained plaques. […]

SMILES	IC90 (RSV A2 VR-1540; typical protocol, read-out: RSV Plaque Reduction Assay Strain A2 IC90) [nM]	pIC50 (RSV A2 VR-1540; †: typical protocol, n = 1, read-out: RSV Plaque Reduction Assay Strain A2 IC50)	pIC50 [1]	pIC50 (RSV A2, 0709161v)
CS(=O)(=O)N1CCN(CCCn2c(CN3C(=O)C(F)(F)c4ccccc43)nc3cc(Cl)ccc32)CC1 [Compound 2, 1-({5-Chloro-1-[3-(4-methanesulfonylpiperazin-1-yl)propyl]-1H-1,3-benzodiazol-2-yl}methyl)-3,3-difluoro-2,3-dihydro-1H-indol-2-one]	35	8.30	7.80	
CS(=O)(=O)N1CCC(n2c(CN3C(=O)C(F)(F)c4ccccc43)nc3cc(Cl)ccc32)CC1 [Compound 8, 1-{[5-Chloro-1-(1-methanesulfonylpiperidin-4-yl)-1H-1,3-benzodiazol-2-yl]methyl}-3,3-difluoro-2,3-dihydro-1H-indol-2-one]			8.77	8.46
